# Target: T1, human JAK2 (Homo sapiens, UniProt O60674)
# T1 construct: JAK2 (a.a. 828-1132); His tag (N); made in house; host or cells: insect cells (baculovirus)
# Test: In vitro JAK kinase assay (HTRF, phosphorylation of biotinylated peptide)
# Format: biochemical
# Conditions: catalytic domain a.a. 828-1132, 30 μM ATP, 500 nM peptide, room temperature 1 hr; read-out: JAK-2 IC50
# How it was run: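 His-tagged human JAK2 catalytic domain (a.a. 828-1132), baculovirus/insect-cell expressed; phosphorylation of 500 nM biotinylated peptide at 30 μM ATP in 50 mM Tris pH 7.8, 100 mM NaCl, 5 mM DTT, 0.01% BSA. 1 h at room temperature, EDTA stop, HTRF read (Eu-Py20/SA-APC); IC50.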
# T1 sequence (O60674 828-1132): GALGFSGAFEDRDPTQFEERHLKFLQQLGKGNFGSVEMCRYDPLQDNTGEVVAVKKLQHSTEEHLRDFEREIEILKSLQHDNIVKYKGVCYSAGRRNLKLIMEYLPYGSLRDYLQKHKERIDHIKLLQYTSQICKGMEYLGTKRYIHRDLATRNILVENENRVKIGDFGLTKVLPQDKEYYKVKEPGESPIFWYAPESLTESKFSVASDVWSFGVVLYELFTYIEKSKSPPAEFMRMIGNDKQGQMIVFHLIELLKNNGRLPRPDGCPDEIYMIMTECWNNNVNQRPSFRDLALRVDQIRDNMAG
row,SMILES,IC50
1,"N#CCC(C1CCNCC1)n1cc(-c2ccnc(Nc3ccc(N4CCOCC4)cc3)n2)cn1 (racemic) [Example 22, 3-(4-(2-(4-morpholinophenylamino)pyrimidin-4-yl)-1H-pyrazol-1-yl)-3-(piperidin-4-yl)propanenitrile]",< 100 nM
2,"N#CCC(C1CCCC1)n1cc(-c2ccnc(Nc3cccc(C(=O)N4CCC(c5cccc(F)c5)C4)c3)n2)cn1 (mixture of isomers) [Example 157, 3-cyclopentyl-3-(4-(2-(3-(3-(3-fluorophenyl)pyrrolidine-1-carbonyl)phenylamino)pyrimidin-4-yl)-1H-pyrazol-1-yl)propanenitrile]",< 100 nM
3,"N#CCC(CC1CCN(C(=O)c2ccc(F)cc2F)CC1)n1cc(-c2ccnc(Nc3ccc(N4CCOCC4)cc3)n2)cn1 (racemic) [Example 5, 4-(1-(2,4-difluorobenzoyl)piperidin-4-yl)-3-(4-(2-(4-morpholinophenylamino)pyrimidin-4-yl)-1H-pyrazol-1-yl)butanenitrile]",< 100 nM
4,"COc1cnc(Nc2cccc(-c3cnco3)c2)nc1-c1cnn(C(CC#N)C2CC2)c1 (racemic) [Example 320, 3-cyclopropyl-3-[4-(5-methoxy-2-{[3-(1,3-oxazol-5-yl)phenyl]amino}pyrimidin-4-yl)-1H-pyrazol-1-yl]propanenitrile]",< 100 nM
5,"N#CCC(C1CCCC1)n1cc(-c2ccnc(Nc3cccc(C(=O)N4CCN(c5ncccn5)CC4)c3)n2)cn1 (racemic) [Example 160, 3-cyclopentyl-3-(4-(2-(3-(4-(pyrimidin-2-yl)piperazine-1-carbonyl)phenylamino)pyrimidin-4-yl)-1H-pyrazol-1-yl)propanenitrile]",< 100 nM
6,"N#CCC1(n2cc(-c3ccnc(Nc4ccc(C(=O)N5[C@@H]6CC[C@H]5C[C@@H](O)C6)cc4)n3)cn2)CC(C#N)C1 (stereo partly drawn) [Example 300, 3-(cyanomethyl)-3-(4-(2-(4-((3-endo)-3-hydroxy-8-azabicyclo[3.2.1]octane-8-carbonyl)phenylamino)pyrimidin-4-yl)-1H-pyrazol-1-yl)cyclobutanecarbonitrile]",< 100 nM
7,"N#CCC1(n2cc(-c3ccnc(Nc4ccc(N5CCOCC5)cc4)n3)cn2)CCN(S(=O)(=O)C2CC2)CC1 [Example 29, 2-(1-(cyclopropylsulfonyl)-4-(4-(2-(4-morpholinophenylamino)pyrimidin-4-yl)-1H-pyrazol-1-yl)piperidin-4-yl)acetonitrile]",< 100 nM
8,"N#CCC(C1CCCC1)n1cc(-c2ccnc(Nc3cccc(C(=O)NCc4cccnc4)c3)n2)cn1 (racemic) [Example 146, 3-(4-(1-(2-cyano-1-cyclopentylethyl)-1H-pyrazol-4-yl)pyrimidin-2-ylamino)-N-(pyridin-3-ylmethyl)benzamide]",< 100 nM
9,"COc1ccc(Nc2nccc(-c3cnn(C(CC#N)C4CCCC4)c3)n2)cc1 (racemic) [Example 38, 3-cyclopentyl-3-(4-(2-(4-methoxyphenylamino)pyrimidin-4-yl)-1H-pyrazol-1-yl)propanenitrile]",< 100 nM
10,"CN1CCCC1CCNC(=O)c1cccc(Nc2nccc(-c3cnn(C(CC#N)C4CCCC4)c3)n2)c1 (centres unmarked) [Example 149, 3-(4-(1-(2-cyano-1-cyclopentylethyl)-1H-pyrazol-4-yl)pyrimidin-2-ylamino)-N-(2-(1-methylpyrrolidin-2-yl)ethyl)benzamide]",< 100 nM
11,"N#CCC(C1CCCC1)n1cc(-c2ccnc(Nc3ccc(C(=O)N4CCN(CCO)CC4)cc3)n2)cn1 (racemic) [Example 121, 3-cyclopentyl-3-(4-(2-(4-(4-(2-hydroxyethyl)piperazine-1-carbonyl)phenylamino)pyrimidin-4-yl)-1H-pyrazol-1-yl)propanenitrile]",< 100 nM
12,"Cc1nccc(-c2cccc(Nc3nccc(-c4cnn(C(CC#N)C5CCCC5)c4)n3)c2)n1 (racemic) [Example 99, 3-cyclopentyl-3-(4-(2-(3-(2-methylpyrimidin-4-yl)phenylamino)pyrimidin-4-yl)-1H-pyrazol-1-yl)propanenitrile]",< 100 nM
13,"CC(=O)N[C@@H]1CCN(C(=O)c2cccc(Nc3nccc(-c4cnn(C(CC#N)C5CCCC5)c4)n3)c2)C1 (mixture of isomers) [Example 158, N-((3R)-1-(3-(4-(1-(2-cyano-1-cyclopentylethyl)-1H-pyrazol-4-yl)pyrimidin-2-ylamino)benzoyl)pyrrolidin-3-yl)acetamide]",< 100 nM
14,"N#CCC(C1CCC1)n1cc(-c2ccnc(Nc3cccc(-c4cnco4)c3)n2)cn1 (racemic) [Example 176, 3-cyclobutyl-3-(4-(2-(3-(oxazol-5-yl)phenylamino)pyrimidin-4-yl)-1H-pyrazol-1-yl)propanenitrile]",< 100 nM
15,"CNC(=O)c1cccc(Nc2nccc(-c3cnn(C(CC#N)C4CCCC4)c3)n2)c1 (racemic) [Example 109, 3-(4-(1-(2-cyano-1-cyclopentylethyl)-1H-pyrazol-4-yl)pyrimidin-2-ylamino)-N-methylbenzamide]",< 100 nM
16,"Cc1cc(OC2CCC(CC#N)(n3cc(-c4ccnc(Nc5ccc(-n6cccn6)cc5)n4)cn3)CC2)no1 (single isomer, unassigned) [Example 246, 2-(1-(4-(2-(4-(1H-pyrazol-1-yl)phenylamino)pyrimidin-4-yl)-1H-pyrazol-1-yl)-4-(5-methylisoxazol-3-yloxy)cyclohexyl)acetonitrile]",< 100 nM
17,"COc1cnc(Nc2ccc(C(=O)NC3CCOCC3)cc2)nc1-c1cnn(C(CC#N)C2CCCC2)c1 (racemic) [Example 305, 4-(4-(1-(2-cyano-1-cyclopentylethyl)-1H-pyrazol-4-yl)-5-methoxypyrimidin-2-ylamino)-N-(tetrahydro-2H-pyran-4-yl)benzamide]",< 100 nM
18,"COc1cnc(Nc2cccc(-c3cnco3)c2)nc1-c1cnn(C(CC#N)C2CCCC2)c1 (racemic) [Example 132, 3-cyclopentyl-3-(4-(5-methoxy-2-(3-(oxazol-5-yl)phenylamino)pyrimidin-4-yl)-1H-pyrazol-1-yl)propanenitrile]",< 100 nM
19,"N#CCC(C1CCCC1)n1cc(-c2ccnc(Nc3ccc(C(=O)N4CCC(Oc5ccccn5)C4)cc3)n2)cn1 (mixture of isomers) [Example 233, 3-cyclopentyl-3-(4-(2-(4-(3-(pyridin-2-yloxy)pyrrolidine-1-carbonyl)phenylamino)pyrimidin-4-yl)-1H-pyrazol-1-yl)propanenitrile]",< 100 nM
20,"N#CCC(C1CC1)n1cc(-c2ccnc(Nc3ccc(C(=O)N4CCC4)cc3)n2)cn1 (racemic) [Example 261, 3-(4-(2-(4-(azetidine-1-carbonyl)phenylamino)pyrimidin-4-yl)-1H-pyrazol-1-yl)-3-cyclopropylpropanenitrile]",< 100 nM

# Other lines, results leading:
row,IC50,SMILES
1,< 100 nM,"CCS(=O)(=O)N1CC(CC#N)(n2cc(-c3ccnc(Nc4ccc(C(=O)N5CC[C@@H](C#N)C5)cc4)n3)cn2)C1 [Example 276, (R)-1-(4-(4-(1-(3-(cyanomethyl)-1-(ethylsulfonyl)azetidin-3-yl)-1H-pyrazol-4-yl)pyrimidin-2-ylamino)benzoyl)pyrrolidine-3-carbonitrile]"
2,< 100 nM,"CCS(=O)(=O)N1CC(CC#N)(n2cc(-c3ccnc(Nc4ccc(C(=O)N5CCOCC5)cc4)n3)cn2)C1 [Example 255, 2-(1-(ethylsulfonyl)-3-(4-(2-(4-(morpholine-4-carbonyl)phenylamino)pyrimidin-4-yl)-1H-pyrazol-1-yl)azetidin-3-yl)acetonitrile]"
3,< 100 nM,"CCS(=O)(=O)N1CC(CC#N)(n2cc(-c3ccnc(Nc4ccc(C(=O)NC5CCOCC5)cc4)n3)cn2)C1 [Example 259, 4-(4-(1-(3-(cyanomethyl)-1-(ethylsulfonyl)azetidin-3-yl)-1H-pyrazol-4-yl)pyrimidin-2-ylamino)-N-(tetrahydro-2H-pyran-4-yl)benzamide]"
4,< 100 nM,"CCS(=O)(=O)N1CC(CC#N)(n2cc(-c3ccnc(Nc4ccc(C(=O)N5CCN(C(C)=O)CC5)cc4)n3)cn2)C1 [Example 281, 2-(3-(4-(2-(4-(4-acetylpiperazine-1-carbonyl)phenylamino)pyrimidin-4-yl)-1H-pyrazol-1-yl)-1-(ethylsulfonyl)azetidin-3-yl)acetonitrile]"
5,< 100 nM,"N#CCC1(n2cc(-c3ccnc(Nc4ccc(C(=O)N5CC[C@@H](C#N)C5)cc4)n3)cn2)CC(C#N)C1 (stereo partly drawn) [Example 297, (R)-1-(4-(4-(1-(3-cyano-1-(cyanomethyl)cyclobutyl)-1H-pyrazol-4-yl)pyrimidin-2-ylamino)benzoyl)pyrrolidine-3-carbonitrile]"
6,< 100 nM,"CCS(=O)(=O)N1CC(CC#N)(n2cc(-c3ccnc(Nc4ccc(C(=O)N5[C@@H]6CC[C@H]5C[C@@H](O)C6)cc4)n3)cn2)C1 [Example 257, 2-(1-(ethylsulfonyl)-3-(4-(2-(4-((3-endo)-3-hydroxy-8-azabicyclo[3.2.1]octane-8-carbonyl)phenylamino)pyrimidin-4-yl)-1H-pyrazol-1-yl)azetidin-3-yl)acetonitrile]"
7,< 100 nM,"CC(=O)Nc1ccc(Nc2nccc(-c3cnn(C4(CC#N)CN(S(=O)(=O)C5CC5)C4)c3)n2)cc1 [Example 19, N-(4-(4-(1-(3-(cyanomethyl)-1-(cyclopropylsulfonyl)azetidin-3-yl)-1H-pyrazol-4-yl)pyrimidin-2-ylamino)phenyl)acetamide]"
8,< 100 nM,"CN1CCN(C(=O)c2ccc(Nc3nccc(-c4cnn(C(CC#N)C5CC5)c4)n3)cc2)CC1 (racemic) [Example 267, 3-cyclopropyl-3-(4-(2-(4-(4-methylpiperazine-1-carbonyl)phenylamino)pyrimidin-4-yl)-1H-pyrazol-1-yl)propanenitrile]"
9,< 100 nM,"N#CCC1(n2cc(-c3ccnc(Nc4ccc(N5CCOCC5)cc4)n3)cn2)CN(S(=O)(=O)C2CC2)C1 [Example 93, 2-(1-(cyclopropylsulfonyl)-3-(4-(2-(4-morpholinophenylamino)pyrimidin-4-yl)-1H-pyrazol-1-yl)azetidin-3-yl)acetonitrile]"

# Reference: patent publication US8309718B2, “4-pyrazolyl-N-arylpyrimidin-2-amines and 4-pyrazolyl-N-heteroarylpyrimidin-2-amines as janus kinase inhibitors” (Incyte Corporation, priority 2007, dated 2012)
